Results on one compound are retold here after US20040142948A1, “Sulfonamides” (priority 2003, published 2004).

The target in the assay is T1, HEK-293 cell membranes containing stable cloned human and rat GPR-14 (UniProt Q9UKP6).
T1 sequence (Q9UKP6 1-389): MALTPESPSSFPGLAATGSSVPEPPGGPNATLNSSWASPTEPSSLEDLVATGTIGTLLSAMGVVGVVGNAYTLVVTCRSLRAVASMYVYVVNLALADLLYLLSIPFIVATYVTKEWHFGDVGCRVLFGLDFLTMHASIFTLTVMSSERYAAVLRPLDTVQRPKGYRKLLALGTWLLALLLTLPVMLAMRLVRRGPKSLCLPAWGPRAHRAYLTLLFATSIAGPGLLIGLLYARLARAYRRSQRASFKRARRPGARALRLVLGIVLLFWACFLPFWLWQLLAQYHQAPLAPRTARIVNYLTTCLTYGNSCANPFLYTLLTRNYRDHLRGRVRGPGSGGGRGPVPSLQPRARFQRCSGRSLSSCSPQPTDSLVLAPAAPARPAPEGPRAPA
In words: Radioligand binding ([125I] h-U-II). The settings on record: [125I] h-U-II 200 pM, species of GPR-14 (human or rat) not given. The method, then: HEK-293 cell membranes containing stable cloned human and rat GPR-14 (20 ug/assay) were incubated with 200 pM [125I] h-U-II (200 Ci/mmol^−1 in the presence of increasing concentrations of test compounds in DMSO (0.1 nM to 10 uM), in a final incubation volume of 200 ul (20 mM Tris-HCl, 5 mM MgCl2). Incubation was done for 30 minutes at room temperature followed by filtration GF/B filters with Brandel cell harvester. ^125I labeled U-II binding was quantitated by gamma counting. Nonspecific binding was defined by ^125I U-II binding in the presence of 100 nM of unlabeled human U-II. Analysis of the data was performed by nonlinear least square fitting.

A word on the Ki: it is a dissociation constant, usually derived from enzyme kinetics or from competition with a known ligand. The low end stands for a stronger hold on the target, the high end for a looser hold on the target. `CN1CC[C@@H](Oc2cc(NS(=O)(=O)c3cccc4nsnc34)ccc2Cl)C1` [Example 3, (R)-N-[4-Chloro-3-(1-methyl-3-pyr-rolidinyloxy)-phenyl]-ben-zo[1,2,5]thiadiazole-1-sulfonamide]: the inhibition constant Ki is 0.23 µM.
